# Experimental data taken from patent US8354518B2, “HCV replicons containing NS5B from genotype 2B” (Merck Sharp & Dohme Corp., priority 2003, dated 2013).
# Key:
# Type in all cases: cell-based, Hepatitis C virus (HCV)
# [1] = system: bk:2B bla chimeric replicon bearing change at residue 24; test: β-lactamase reporter replicon assay, bk:2B bla chimeric replicon with change at residue 24; details: at the EC95 for 2′C-methyladenosine; replicon not robust enough for IC50 determination
# Experimental: (§1) Selection of persistently replication cells lines expressing β-lactamase, using bla:2b chimeric replicons each harboring a different mutation (N24S, M31I, I392L) defined in the Neo^r selection studies described above, was performed in the enhanced replication Huh7 derived cell line MR2. (Murray et al., J. of Virology, 77:2928-2935, 2003.) To generate RNA for transfection, plasmids were linearized by digestion of an XbaI site distal to the replicon sequences. RNA was generated using MEGAscript™ (Ambion, Austin, Tex.) and quantitated by UV absorbance.
# (§2) On day 4 cells from one flask were collected, counted, and seeded into a 96 well Cytostar plate at a density of 7,500 cells/well in the presence of 1 μM clavulonic acid. […] Simultaneously, the other flasks were analyzed for β-lactamase activity to verify both that activity from a non-replicating control sub-genomic replicon was undetectable, and establish the day 4 replication activity of the test replicons. […] Cells with drug were incubated for two days, and analyzed as described in Example 4.
# (§3) Medium was removed by aspiration and cells were stained for 2 hours with CCF4-AM (Invitrogen Corp., Carlsbad, Calif.) in DMEM supplemented with 25 mM HEPES, pH 8.0. Fluorescence due to β-lactamase activity was measured through excitation at 405 nm, followed by measurement of the emission at 460 nm using a CytoFluor 4000 fluorescence plate reader. […]
# BK NS5a268S-2bN24S = test: β-lactamase reporter replicon assay, BK NS5a268S-2bN24S chimeric replicon; details: BK NS5a268S-2bN24S replicon
# Experimental: as §1, with “absorbance. […]” for “absorbance.”
# (§4) The next morning cells were expanded into two T75 flasks and grown for an additional three days. A duplicate well for each replicon construct was analyzed for β-lactamase activity to verify that the transfection efficiency was >90%.
# as §2, with “4. […]” for “4.”
# BK-2bM31I = test: β-lactamase reporter replicon assay, BK-2bM31I chimeric replicon; details: BK-2bM31I replicon in MR2 (Huh7 derived) cells, two days with drug, percent of DMSO control, 4 parameter fit
# Experimental: as §1
# (§5) MR2 was maintained in Dulbecco's modified Eagle's medium (DMEM) supplemented with 10% fetal bovine serum, nonessential amino acids, 2 mM GlutaMAX, and Penn/Strep (Invitrogen Corp., Carlsbad, Calif.). Cells were seeded the night prior to transfection at a density of 300,000 cells per well in a 6-well dish. A mixture of 5 μg RNA, 12 μl of DMRE-C (Invitrogen Corp., Carlsbad, Calif.), and 2 ml of Opti-Mem (Invitrogen Corp., Carlsbad, Calif.) media was prepared and allowed to sit for 10 minutes. During this time media was removed from the MR2 cells, cells were washed once with Opti-Mem, then the RNA:DMRE-C mixture was added dropwise, and incubated for ˜8 hours. Transfection media was removed by aspiration, and replaced with 2 ml DMEM.
# [2] = system: bk:2B bla chimeric replicon bearing change at residue 392; test: β-lactamase reporter replicon assay, bk:2B bla chimeric replicon with change at residue 392; details: at the EC95 for 2′C-methyladenosine; replicon not robust enough for IC50 determination
# Experimental: as §1, §2, §3
# Con1-2bM31I = test: β-lactamase reporter replicon assay, Con1-2bM31I chimeric replicon; details: Con1-2bM31I replicon in MR2 (Huh7 derived) cells, two days with drug, percent of DMSO control, 4 parameter fit
# Experimental: as §1, §5
# BK-2b N24S/L392I = test: β-lactamase reporter replicon assay, BK-2b N24S/L392I chimeric replicon; details: BK-2b N24S/L392I replicon
# Experimental: as §1, with “absorbance. […]” for “absorbance.”
# as §4
# as §2, with “4. […]” for “4.”
smiles,measurement,setting,value
C[C@@]1(O)[C@H](O)[C@@H](CO)O[C@H]1n1cnc2c(N)ncnc21 [2′C-methyladenosine],inhibition of limited replication,[1],could be inhibited
same,EC50,BK NS5a268S-2bN24S,0.982 µM
same,EC50,BK-2bM31I,0.667 µM
same,inhibition of limited replication,[2],could be inhibited
same,EC50,Con1-2bM31I,0.407 µM
same,EC50,BK-2b N24S/L392I,0.185 µM
